For orientation: inhibition means the change of the read-out against control, counted positive when it falls.

The values that follow come from patent US10077261B2, “Imidazolin-5-one derivative useful as FASN inhibitors for the treatment of cancer” (Janssen Pharmaceutica NV, priority 2012, dated 2018).

The target in assay [1] is T1, hFASN enzyme (full length) (Homo sapiens, UniProt P49327).
T1 construct: 10 μL hFASN enzyme (full length, 300 ng, purified in house); made in house
Put plainly: Fatty Acid Synthase (FASN) inhibition scintillation proximity assay. Format: biochemical. The following applies: for inhibition at 10 µM: read-out: Human FASN % inhibition @ 10 μM, 10 μM test compound; for IC50: read-out: Human FASN pIC50 (converted). An outline of the steps: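 Compounds at 0.01–30 μM were mixed with 300 ng purified full-length enzyme in 100 mM KH2PO4 pH 7.5, 1 mM DTT. Substrates ³H-acetyl-CoA and malonyl-CoA were then converted, and bead addition stopped the reaction. Signal was normalised to low and high plate controls and fitted by 4-parameter nonlinear regression.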

For assay [2], the system named is A2780 ovarian cells. Put plainly: A2780 ovarian cell proliferation assay in lipid reduced medium, with palmitate (MTT). The assay is classed as cell-based. The following applies: Homo sapiens, A2780, 96 h; read-out: pIC50 A2780 Ovarian Cell, With Palmitate (converted). An outline of the steps: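 Seeded cells were switched next day to lipid-reduced serum, exposed to compound and 25 μM palmitate complexed with fatty-acid-free BSA, and incubated 96 h. Proliferation was then determined by MTT absorbance at 544 nm, with a best-fit curve of signal against concentration.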

Assay [3] concerns A2780 ovarian cells. Put plainly: A2780 ovarian cell proliferation assay in lipid reduced medium, without palmitate (MTT). Format: cell-based. The following applies: Homo sapiens, A2780, 96 h; read-out: pIC50 A2780 Ovarian Cell, Without Palmitate (converted).
The subject of assay [4] is LNCaP-Vancouver prostate cells. Put plainly: In vitro LNCaP Vancouver prostate cell proliferation assay in lipid reduced medium. The assay is classed as cell-based. Conditions: read-out: pIC50 LNCaP_Vancouver prostate cell (converted).
The subject of assay [5] is PC-3M-Luc-C6 prostate cells. Put plainly: In vitro PC-3M-Luc-C6 prostate cell proliferation assay in lipid reduced medium. The assay is classed as cell-based. The following applies: 96 h, read-out: pIC50 PC-3M-Luc-C6 prostate cell (converted).
For assay [6], the target named is Fatty Acid Synthase Keto-reductase Domain (FASN KR) (Homo sapiens, UniProt P49327). As to the kind of experiment: Fatty Acid Synthase keto-reductase domain (FASN KR) inhibition, NADPH oxidation at 340 nm.
Sequence of Fatty Acid Synthase Keto-reductase Domain (FASN KR) (P49327 whole entry, the tested form may be a part): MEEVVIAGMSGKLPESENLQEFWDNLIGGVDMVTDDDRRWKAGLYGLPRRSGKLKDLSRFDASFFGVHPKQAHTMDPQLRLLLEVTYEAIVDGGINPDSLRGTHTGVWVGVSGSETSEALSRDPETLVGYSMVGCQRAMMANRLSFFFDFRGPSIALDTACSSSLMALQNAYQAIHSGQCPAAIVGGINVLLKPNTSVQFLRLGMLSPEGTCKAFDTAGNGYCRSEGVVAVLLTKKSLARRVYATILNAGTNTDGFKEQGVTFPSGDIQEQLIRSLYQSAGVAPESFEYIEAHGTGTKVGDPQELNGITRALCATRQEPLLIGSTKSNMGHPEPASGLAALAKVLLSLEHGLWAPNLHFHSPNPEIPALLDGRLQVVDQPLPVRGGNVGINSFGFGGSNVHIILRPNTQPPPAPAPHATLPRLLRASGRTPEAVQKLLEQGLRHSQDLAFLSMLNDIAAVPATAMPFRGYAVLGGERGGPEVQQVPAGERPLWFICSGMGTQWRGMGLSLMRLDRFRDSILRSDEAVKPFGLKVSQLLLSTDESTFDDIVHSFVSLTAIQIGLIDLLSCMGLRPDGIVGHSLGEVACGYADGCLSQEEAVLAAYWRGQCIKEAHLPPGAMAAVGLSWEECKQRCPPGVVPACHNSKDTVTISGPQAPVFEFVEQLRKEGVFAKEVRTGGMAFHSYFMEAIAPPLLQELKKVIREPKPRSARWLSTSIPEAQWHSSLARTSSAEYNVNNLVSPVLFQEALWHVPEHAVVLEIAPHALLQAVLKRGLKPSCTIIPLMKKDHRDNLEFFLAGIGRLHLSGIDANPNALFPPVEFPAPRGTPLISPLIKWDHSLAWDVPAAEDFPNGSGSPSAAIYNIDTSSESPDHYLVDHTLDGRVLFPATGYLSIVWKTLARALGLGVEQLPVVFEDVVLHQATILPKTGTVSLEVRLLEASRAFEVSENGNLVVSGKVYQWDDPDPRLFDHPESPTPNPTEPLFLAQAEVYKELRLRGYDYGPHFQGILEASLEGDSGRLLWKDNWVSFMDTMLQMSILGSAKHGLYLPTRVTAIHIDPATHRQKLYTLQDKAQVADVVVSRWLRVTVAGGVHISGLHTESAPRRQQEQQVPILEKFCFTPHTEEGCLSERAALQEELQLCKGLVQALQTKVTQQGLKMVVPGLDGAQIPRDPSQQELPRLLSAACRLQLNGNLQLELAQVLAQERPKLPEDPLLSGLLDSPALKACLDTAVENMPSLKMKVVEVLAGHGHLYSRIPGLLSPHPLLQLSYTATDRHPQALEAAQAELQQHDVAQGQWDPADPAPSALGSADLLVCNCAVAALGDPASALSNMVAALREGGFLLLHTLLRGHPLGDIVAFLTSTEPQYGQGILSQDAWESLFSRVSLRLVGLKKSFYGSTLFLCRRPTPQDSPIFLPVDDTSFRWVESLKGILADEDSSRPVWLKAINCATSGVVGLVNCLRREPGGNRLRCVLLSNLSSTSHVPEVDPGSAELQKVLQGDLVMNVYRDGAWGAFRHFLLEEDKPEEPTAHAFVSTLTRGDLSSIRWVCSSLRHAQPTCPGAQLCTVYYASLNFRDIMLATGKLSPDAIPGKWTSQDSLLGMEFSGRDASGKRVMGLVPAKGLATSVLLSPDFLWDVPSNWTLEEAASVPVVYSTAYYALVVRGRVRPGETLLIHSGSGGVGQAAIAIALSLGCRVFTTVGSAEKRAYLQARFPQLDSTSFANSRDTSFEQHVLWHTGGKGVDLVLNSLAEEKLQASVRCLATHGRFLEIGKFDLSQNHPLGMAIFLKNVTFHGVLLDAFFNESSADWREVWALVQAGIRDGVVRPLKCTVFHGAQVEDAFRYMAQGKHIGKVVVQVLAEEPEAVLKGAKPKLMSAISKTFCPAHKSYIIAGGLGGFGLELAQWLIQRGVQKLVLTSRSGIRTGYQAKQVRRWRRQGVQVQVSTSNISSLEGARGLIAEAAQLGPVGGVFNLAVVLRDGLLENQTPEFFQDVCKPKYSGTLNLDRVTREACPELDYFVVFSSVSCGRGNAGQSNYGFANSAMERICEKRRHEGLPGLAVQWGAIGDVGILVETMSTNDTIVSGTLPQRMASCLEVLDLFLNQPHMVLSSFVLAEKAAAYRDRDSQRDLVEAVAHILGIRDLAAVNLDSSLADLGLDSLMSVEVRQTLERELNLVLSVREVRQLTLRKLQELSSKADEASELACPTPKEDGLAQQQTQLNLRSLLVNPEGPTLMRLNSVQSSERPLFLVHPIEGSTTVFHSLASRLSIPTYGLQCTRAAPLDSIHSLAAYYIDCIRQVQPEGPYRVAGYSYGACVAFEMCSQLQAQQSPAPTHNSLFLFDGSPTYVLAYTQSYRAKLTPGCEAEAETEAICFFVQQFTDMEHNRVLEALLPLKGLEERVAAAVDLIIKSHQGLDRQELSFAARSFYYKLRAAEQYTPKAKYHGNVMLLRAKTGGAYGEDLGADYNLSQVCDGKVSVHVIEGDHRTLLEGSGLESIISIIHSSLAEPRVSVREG
Procedure: After 20 minutes incubation at room temperature the plate was measured again (T2).
The decrease in absorbance was calculated as (Absorbance before incubation T1)−(Absorbance following incubation T2).
A plot of Controlmin versus test compound concentration was fitted to a 4-parameter logistic curve using a non-linear least squares regression method.

T1 sequence (P49327 whole entry): as the sequence (P49327 whole entry, the tested form may be a part) above

For the compound `Cc1ccc2nc(-c3ccc(C4=NC5(CC5)C(=O)N4CC4CN(C(=O)C5CC5)C4)c(F)c3)sc2c1` [compound 270, 6-((1-(cyclopropanecarbonyl)azetidin-3-yl)methyl)-5-(2-fluoro-4-(6-methylbenzo[d]thiazol-2-yl)phenyl)-4,6-diazaspiro[2.4]hept-4-en-7-one], the inhibition at 10 µM in assay [1] was determined as 102%. The IC50 in assay [1] is 35.5 nM; in assay [2] it was approximately 5500 nM; in assay [3], approximately 27.5 nM; in assay [4] it was 195 nM; in assay [5] it was 34.7 nM; in assay [6], 166 nM.

`O=C(C1CC1)N1CC(CN2C(=O)C3(CC3)N=C2c2ccc(-c3nc4ccc(F)cc4s3)cc2F)C1` [compound 271, 6-((1-(cyclopropanecarbonyl)azetidin-3-yl)methyl)-5-(2-fluoro-4-(6-fluorobenzo[d]thiazol-2-yl)phenyl)-4,6-diazaspiro[2.4]hept-4-en-7-one]: the inhibition at 10 µM in assay [1] came to 104%. In addition, the IC50 in assay [1] was 56.2 nM; in assay [2] it was more than 10000 nM; in assay [3], approximately 74.1 nM; in assay [4], 417 nM; in assay [5], 97.7 nM; in assay [6] it was 166 nM.

As to `Cc1cc(-c2ccc3cc(C#N)ccc3c2)ccc1C1=NC2(CC2)C(=O)N1CC1CN(C(=O)C2(O)CC2)C1` [compound 272, 6-(4-(6-((1-(1-hydroxycyclopropanecarbonyl)azetidin-3-yl)methyl)-7-oxo-4,6-diazaspiro[2.4]hept-4-en-5-yl)-3-methylphenyl)-2-naphthonitrile], the inhibition at 10 µM in assay [1] was 105%. The IC50 is 18.6 nM in assay [1]; more than 10000 nM in assay [2]; approximately 7.24 nM in assay [3]; 49 nM in assay [4]; 10.7 nM in assay [5]; approximately 38.9 nM in assay [6].

Take `Cc1cc(-c2ccc3cc(C#N)ccc3c2)ccc1C1=NC2(CC2)C(=O)N1CC1CN(C(=O)C2(F)CC2)C1` [compound 273, 6-(4-(6-((1-(1-fluorocyclopropanecarbonyl)azetidin-3-yl)methyl)-7-oxo-4,6-diazaspiro[2.4]hept-4-en-5-yl)-3-methylphenyl)-2-naphthonitrile]: in assay [1], the inhibition at 10 µM was determined as 102%. The IC50 in assay [1] was 42.7 nM; in assay [2], 7940 nM; in assay [3], approximately 20.9 nM; in assay [4], 355 nM; in assay [5], 67.6 nM; in assay [6], 145 nM.

As for `O=C(C1CC1)N1CC(CN2C(=O)C3(CC3)N=C2c2ccc(-c3nc4ccc(Cl)cc4s3)cc2F)C1` [compound 274, 5-(4-(6-chlorobenzo[d]thiazol-2-yl)-2-fluorophenyl)-6-((1-(cyclopropanecarbonyl)azetidin-3-yl)methyl)-4,6-diazaspiro[2.4]hept-4-en-7-one], in assay [1], the inhibition at 10 µM was found to be 101%. For the same compound, the IC50 is 50.1 nM in assay [1]; 7240 nM in assay [2]; approximately 24 nM in assay [3]; 339 nM in assay [4]; 46.8 nM in assay [5]; 100 nM in assay [6].

For the compound `Cc1cc(-c2ccc3oc(C)c(C)c3c2)ccc1C1=NC2(CC2)C(=O)N1C[C@@H]1CCN(C(=O)C2CC2)C1` [compound 282, (R)-6-((1-(cyclopropanecarbonyl)pyrrolidin-3-yl)methyl)-5-(4-(2,3-dimethylbenzofuran-5-yl)-2-methylphenyl)-4,6-diazaspiro[2.4]hept-4-en-7-one], the inhibition at 10 µM in assay [1] was found to be 106%. The IC50 in assay [1] is 87.1 nM; in assay [2], more than 10000 nM; in assay [3], approximately 2090 nM; in assay [4] it was approximately 2140 nM; in assay [5], approximately 1700 nM; in assay [6], 224 nM.

Consider `Cc1cc(-c2ccc3[nH]ccc3c2)ccc1C1=NC2(CC2)C(=O)N1C[C@@H]1CCN(C(=O)C2CC2)C1` [compound 284, (R)-5-(4-(1H-indol-5-yl)-2-methylphenyl)-6-((1-(cyclopropanecarbonyl)pyrrolidin-3-yl)methyl)-4,6-diazaspiro[2.4]hept-4-en-7-one], for which the inhibition at 10 µM in assay [1] was found to be 106%. The IC50 in assay [1] is 25.7 nM; in assay [2] it was more than 10000 nM; in assay [3] it was approximately 23.4 nM; in assay [4], 38 nM; in assay [5], 18.2 nM; in assay [6], 30.9 nM.

In the case of `Cc1cc(-c2ccc3[nH]ncc3c2)ccc1C1=NC2(CC2)C(=O)N1C[C@@H]1CCN(C(=O)C2CC2)C1` [compound 286, (R)-5-(4-(1H-indazol-5-yl)-2-methylphenyl)-6-((1-(cyclopropanecarbonyl)pyrrolidin-3-yl)methyl)-4,6-diazaspiro[2.4]hept-4-en-7-one], the inhibition at 10 µM in assay [1] was 103%. Besides, the IC50 in assay [1] was 43.7 nM; in assay [2], more than 10000 nM; in assay [3] it was approximately 21.4 nM; in assay [4] it was 123 nM; in assay [5], 25.1 nM; in assay [6], 60.3 nM.

Take `Cc1cc(-c2ccc3sccc3c2)ccc1C1=NC2(CC2)C(=O)N1CC1CN(C(=O)C2CC2)C1` [compound 288]: in assay [1], the inhibition at 10 µM is 107%. Besides, the IC50 is 26.9 nM in assay [1]; more than 10000 nM in assay [2]; approximately 107 nM in assay [3]; 537 nM in assay [4]; 77.6 nM in assay [5]; 53.7 nM in assay [6].

In the case of `Cc1cc(-c2ccc3sc(C)c(C)c3c2)ccc1C1=NC2(CC2)C(=O)N1CC1CN(C(=O)C2CC2)C1` [compound 290, 6-((1-(cyclopropanecarbonyl)azetidin-3-yl)methyl)-5-(4-(2,3-dimethylbenzo[b]thiophen-5-yl)-2-methylphenyl)-4,6-diazaspiro[2.4]hept-4-en-7-one], the inhibition at 10 µM in assay [1] was found to be 110%. Also, the IC50 in assay [1] was 79.4 nM; in assay [2], more than 10000 nM; in assay [3], approximately 1950 nM; in assay [4] it was approximately 2140 nM; in assay [5], approximately 1170 nM; in assay [6], 331 nM.

Regarding `Cc1cc(-c2ccc3[nH]ccc3c2)ccc1C1=NC2(CC2)C(=O)N1CC1CN(C(=O)C2CC2)C1` [compound 291, 5-(4-(1H-indol-5-yl)-2-methylphenyl)-6-((1-(cyclopropanecarbonyl)azetidin-3-yl)methyl)-4,6-diazaspiro[2.4]hept-4-en-7-one], in assay [1], the inhibition at 10 µM was 108%. The IC50 is 27.5 nM in assay [1]; more than 10000 nM in assay [2]; 45.7 nM in assay [3]; 295 nM in assay [4]; approximately 42.7 nM in assay [5]; 38 nM in assay [6].

Consider `Cc1cc(-c2ccc3c(cnn3C)c2)ccc1C1=NC2(CC2)C(=O)N1CC1CN(C(=O)C2CC2)C1` [compound 292, 6-((1-(cyclopropanecarbonyl)azetidin-3-yl)methyl)-5-(2-methyl-4-(1-methyl-1H-indazol-5-yl)phenyl)-4,6-diazaspiro[2.4]hept-4-en-7-one], for which the inhibition at 10 µM in assay [1] worked out at 100%. For the same compound, the IC50 was 87.1 nM in assay [1]; more than 10000 nM in assay [2]; 126 nM in assay [3]; 692 nM in assay [4]; 178 nM in assay [5]; 245 nM in assay [6].

With `Cc1cc(-c2ccc3[nH]ncc3c2)ccc1C1=NC2(CC2)C(=O)N1CC1CN(C(=O)C2CC2)C1` [compound 293, 5-(4-(1H-indazol-5-yl)-2-methylphenyl)-6-((1-(cyclopropanecarbonyl)azetidin-3-yl)methyl)-4,6-diazaspiro[2.4]hept-4-en-7-one], the inhibition at 10 µM in assay [1] was found to be 105%. Besides, the IC50 in assay [1] was 38 nM; in assay [2], more than 10000 nM; in assay [3] it was 87.1 nM; in assay [4], approximately 513 nM; in assay [5], approximately 141 nM; in assay [6] it was 174 nM.

On to `Cc1cc2cc(-c3ccc(C4=NC5(CC5)C(=O)N4C[C@@H]4CCN(C(=O)C5CC5)C4)cc3)ccc2s1` [compound 295, (R)-6-((1-(cyclopropanecarbonyl)pyrrolidin-3-yl)methyl)-5-(4-(2-methylbenzo[b]thiophen-5-yl)phenyl)-4,6-diazaspiro[2.4]hept-4-en-7-one], for which, in assay [1], the inhibition at 10 µM stood at 100%. Moreover, the IC50 is 53.7 nM in assay [1]; more than 10000 nM in assay [2]; 631 nM in assay [3]; 1290 nM in assay [4]; approximately 575 nM in assay [5]; 105 nM in assay [6].

On to `O=C(C1CC1)N1CC[C@@H](CN2C(=O)C3(CC3)N=C2c2ccc(-c3ccc4sccc4c3)cc2)C1` [compound 298, (R)-5-(4-(benzo[b]thiophen-5-yl)phenyl)-6-((1-(cyclopropanecarbonyl)pyrrolidin-3-yl)methyl)-4,6-diazaspiro[2.4]hept-4-en-7-one], for which the inhibition at 10 µM in assay [1] was 100%. For the same compound, the IC50 in assay [1] was 21.9 nM; in assay [2], more than 10000 nM; in assay [3] it was 58.9 nM; in assay [4], 617 nM; in assay [5] it was 66.1 nM; in assay [6], 26.9 nM.
